Reference: patent US10358436B2, “Kinase inhibitors and method of treating cancer” (University Health Network, priority 2010, dated 2019)
Read-outs that look alike come from different tables or passages of the source.

Experiments:
Format in all cases: biochemical
[1] = molecular target: human PLK4 (Homo sapiens (Human), UniProt O00444); test: PLK4 inhibition assay (indirect ELISA)
[2] = molecular target: Aurora B (Homo sapiens (Human), UniProt Q96GD4); test: Aurora B inhibition assay (Z-Lyte)
[3] = molecular target: Aurora A (Homo sapiens (Human), UniProt O14965); test: Aurora A inhibition assay (Z-Lyte)
Aurora A, sequence (O14965 whole entry): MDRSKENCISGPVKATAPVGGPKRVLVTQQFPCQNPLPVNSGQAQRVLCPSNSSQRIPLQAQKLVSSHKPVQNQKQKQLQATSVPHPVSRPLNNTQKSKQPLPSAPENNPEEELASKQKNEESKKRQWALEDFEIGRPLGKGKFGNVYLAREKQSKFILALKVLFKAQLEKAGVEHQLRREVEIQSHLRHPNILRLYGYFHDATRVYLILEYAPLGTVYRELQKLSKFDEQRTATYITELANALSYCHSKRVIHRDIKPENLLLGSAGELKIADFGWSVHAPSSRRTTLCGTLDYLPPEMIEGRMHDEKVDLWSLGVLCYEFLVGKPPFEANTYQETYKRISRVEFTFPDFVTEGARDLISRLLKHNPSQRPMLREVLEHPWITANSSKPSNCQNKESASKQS

Aurora B, sequence (Q96GD4 whole entry): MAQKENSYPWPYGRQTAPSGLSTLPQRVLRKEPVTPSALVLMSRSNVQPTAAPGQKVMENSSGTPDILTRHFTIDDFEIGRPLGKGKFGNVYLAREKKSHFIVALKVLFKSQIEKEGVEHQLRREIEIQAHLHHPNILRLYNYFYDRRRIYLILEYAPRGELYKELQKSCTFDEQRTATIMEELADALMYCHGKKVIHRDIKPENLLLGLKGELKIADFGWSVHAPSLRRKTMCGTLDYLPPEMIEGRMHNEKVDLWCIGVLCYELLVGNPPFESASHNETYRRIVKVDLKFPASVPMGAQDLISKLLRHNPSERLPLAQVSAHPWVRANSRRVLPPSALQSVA
human PLK4, sequence (O00444 1-391): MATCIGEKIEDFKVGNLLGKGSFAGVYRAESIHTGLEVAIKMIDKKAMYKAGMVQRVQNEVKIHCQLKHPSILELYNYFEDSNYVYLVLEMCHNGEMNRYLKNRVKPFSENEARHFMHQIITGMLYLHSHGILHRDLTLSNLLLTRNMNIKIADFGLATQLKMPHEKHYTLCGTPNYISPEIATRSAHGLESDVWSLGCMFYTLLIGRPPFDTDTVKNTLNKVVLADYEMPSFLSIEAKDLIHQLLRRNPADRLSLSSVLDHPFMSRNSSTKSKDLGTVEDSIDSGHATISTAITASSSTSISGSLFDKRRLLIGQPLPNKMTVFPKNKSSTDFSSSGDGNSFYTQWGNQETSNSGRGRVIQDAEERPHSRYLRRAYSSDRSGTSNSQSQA

SMILES | IC50 ([1]; read-out: PLK4 IC50 Ranges) [nM] | IC50 ([2]; read-out: Aurora B IC50 Ranges) [nM] | inhibition at 1 µM [3] [%] | IC50 [1] [nM] | IC50 [2] [nM]
CN1C(=O)[C@@]2(C[C@H]2c2ccc3c(/C=C/c4ccc(N5CCNCC5)cc4)n[nH]c3c2)c2ccccc21 (relative stereo) [Example A89, (1R*,2S*)-(E)-1′-methyl-2-(3-(4-(piperazin-1-yl)styryl)-1H-indazol-6-yl)spiro[cyclopropane-1,3′-indolin]-2′-one 2,2,2-trifluoroacetate] |  |  | > 50 | < 100 | < 100
O=C1Nc2ccccc2[C@]12C[C@H]2c1ccc2c(/C=C/c3ccc(N4CCNCC4)cc3)n[nH]c2c1 (relative stereo) [Example A91, (1R*,2S*)-(E)-2-(3-(4-(piperazin-1-yl)styryl)-1H-indazol-6-yl)spiro[cyclopropane-1,3′-indolin]-2′-one 2,2,2-trifluoroacetate] |  | < 100 | > 50 | < 100 | 
CN1C(=O)[C@@]2(C[C@H]2c2ccc3c(/C=C/c4ccc(CN5CCCCC5)cc4)n[nH]c3c2)c2ccccc21 (relative stereo) [Example A95, (1R*,2S*)-(E)-1′-methyl-2-(3-(4-(piperidin-1-ylmethyl)styryl)-1H-indazol-6-yl)spiro[cyclopropane-1,3′-indolin]-2′-one 2,2,2-trifluoroacetate] | < 100 | < 100 |  |  | 
CCN1CCN(c2ccc(-c3n[nH]c4cc([C@@H]5C[C@@]56C(=O)Nc5ccc(OC)cc56)ccc34)cc2)CC1 (relative stereo) [Example A98, (1R*,2S*)-2-(3-(4-(4-ethylpiperazin-1-yl)phenyl)-1H-indazol-6-yl)-5′-methoxyspiro[cyclopropane-1,3′-indolin]-2′-one 2,2,2-trifluoroacetate] |  | < 100 | < 50 | < 100 | 
COc1ccc2c(c1)[C@]1(C[C@H]1c1ccc3c(-c4ccc(OCCN(C)C)cc4)n[nH]c3c1)C(=O)N2 (relative stereo) [Example A103, (1R*,2S*)-2-(3-(4-(2-(dimethylamino)ethoxy)phenyl)-1H-indazol-6-yl)-5′-methoxyspiro[cyclopropane-1,3′-indolin]-2′-one 2,2,2-trifluoroacetate] | < 100 | < 100 | < 50 |  | 
COc1ccc2c(c1)[C@]1(C[C@H]1c1ccc3c(-c4ccc(N5CCN(C)CC5)nc4)n[nH]c3c1)C(=O)N2C (relative stereo) [Example A104, (1R*,2S*)-5′-methoxy-1′-methyl-2-(3-(6-(4-methylpiperazin-1-yl)pyridin-3-yl)-1H-indazol-6-yl)spiro[cyclopropane-1,3′-indolin]-2′-one bis(2,2,2-trifluoroacetate)] | < 100 | < 100 | < 50 |  | 
CCc1ccc2c(c1)[C@]1(C[C@H]1c1ccc3c(-c4ccc(N5CCN(C)CC5)cc4)n[nH]c3c1)C(=O)N2 (relative stereo) [Example A142, (1R*,2S*)-5′-ethyl-2-(3-(4-(4-methylpiperazin-1-yl)phenyl)-1H-indazol-6-yl)spiro[cyclopropane-1,3′-indolin]-2′-one 2,2,2-trifluoroacetate] | < 100 | < 100 |  |  | 
COc1ccc2c(c1)[C@]1(C[C@H]1c1ccc3c(/C=C/c4ccc(N5CCNCC5)nc4)n[nH]c3c1)C(=O)N2 (relative stereo) [Example A163, (1R*,2S*)-5′-methoxy-2-(3-((E)-2-(6-(piperazin-1-yl)pyridin-3-yl)vinyl)-1H-indazol-6-yl)spiro[cyclopropane-1,3′-indolin]-2′-one 2,2,2-trifluoroacetate] | < 100 | < 100 | > 50 |  | 
CN(C)Cc1ccc(/C=C/c2n[nH]c3cc([C@@H]4C[C@@]45C(=O)Nc4ncccc45)ccc23)cc1 (relative stereo) [Example A172, (1R*,2S*)-(E)-2-(3-(4-((dimethylamino)methyl)styryl)-1H-indazol-6-yl)spiro[cyclopropane-1,3′-pyrrolo[2,3-b]pyridin]-2′(1′H)-one 2,2,2-trifluoroacetate] | < 100 | < 100 |  |  | 

Second part, led by results:

IC50 ([1]; read-out: PLK4 IC50 Ranges) [nM] | IC50 ([2]; read-out: Aurora B IC50 Ranges) [nM] | inhibition at 1 µM [3] [%] | SMILES | IC50 [1] [nM] | IC50 [2] [nM]
< 100 | < 100 | < 50 | COc1ccc2c(c1)[C@]1(C[C@H]1c1ccc3c(-c4ccc(N5CCNCC5)nc4)n[nH]c3c1)C(=O)N2 (relative stereo) [Example A21, 4-(5-(6-((1R*,2S*)-5′-Methoxy-2′-oxospiro[cyclopropane-1,3′-indoline]-2-yl)-1H-indazol-3-yl)pyridinium-2-yl)piperazine bis(2,2,2-trifluoroacetate)] |  | 
< 100 | < 100 | < 50 | COc1ccc2c(c1)[C@]1(C[C@H]1c1ccc3c(-c4ccnc(N5CCN(C)CC5)c4)n[nH]c3c1)C(=O)N2 (relative stereo) [Example A37, (1R*,2S*)-5′-Methoxy-2-(3-(2-(4-methylpiperazin-1-yl)pyridin-4-yl)-1H-indazol-6-yl)spiro[cyclopropane-1,3′-indolin]-2′-one] |  | 
 | < 100 | < 50 | COc1ccc2c(c1)[C@]1(C[C@H]1c1ccc3c(-c4ccc(N5CCN(C)CC5)cc4)n[nH]c3c1)C(=O)N2 (relative stereo) [Example A38, (1R*,2S*)-5′-Methoxy-2-(3-(4-(4-methylpiperazin-1-yl)phenyl)-1H-indazol-6-yl)spiro[cyclopropane-1,3′-indolin]-2′-one] | < 100 | 
< 100 | < 100 | < 50 | COc1ccc2c(c1)[C@]1(C[C@H]1c1ccc3c(-c4cccc(CO)c4)n[nH]c3c1)C(=O)N2 (relative stereo) [Example A43, (1R*,2S*)-2-(3-(3-(hydroxymethyl)phenyl)-1H-indazol-6-yl)-5′-methoxy spiro[cyclopropane-1,3′-indolin]-2′-one 2,2,2-trifluoroacetate] |  | 
< 100 | 100 to 1000 | > 50 | CN1CCN(c2ccc(-c3n[nH]c4cc([C@@H]5C[C@@]56C(=O)Nc5ccc(N)cc56)ccc34)cc2)CC1 (relative stereo) [Example A86, (1R*,2S*)-5′-amino-2-(3-(4-(4-methylpiperazin-1-yl)phenyl)-1H-indazol-6-yl)spiro[cyclopropane-1,3′-indolin]-2′-one] |  | 
< 100 | < 100 | > 50 | CN1CCN(c2ccc(-c3n[nH]c4cc([C@@H]5C[C@@]56C(=O)N(C)c5ccccc56)ccc34)cn2)CC1 (relative stereo) [Example A93, (1R*,2S*)-1′-methyl-2-(3-(6-(4-methylpiperazin-1-yl)pyridin-3-yl)-1H-indazol-6-yl)spiro[cyclopropane-1,3′-indolin]-2′-one bis(2,2,2-trifluoroacetate)] |  | 
< 100 | < 100 | < 50 | COc1ccc2c(c1)[C@]1(C[C@H]1c1ccc3c(-c4ccc(N5CCN(C)CC5)cc4)n[nH]c3c1)C(=O)N2C (relative stereo) [Example A100, (1R*,2S*)-5′-methoxy-1′-methyl-2-(3-(4-(4-methylpiperazin-1-yl)phenyl)-1H-indazol-6-yl)spiro[cyclopropane-1,3′-indolin]-2′-one 2,2,2-trifluoroacetate] |  | 
> 1000 |  |  | COc1cc2c(cc1OC)[C@]1(C[C@H]1c1ccc3c(-c4cccc(CN5CCOCC5)c4)n[nH]c3c1)C(=O)N2 (relative stereo) [Example A143, (1R*,2S*)-5′,6′-dimethoxy-2-(3-(3-(morpholinomethyl)phenyl)-1H-indazol-6-yl)spiro[cyclopropane-1,3′-indolin]-2′-one 2,2,2-trifluoroacetate] |  | 
< 100 |  | > 50 | CN1CCN(c2ccc(/C=C/c3n[nH]c4cc([C@@H]5C[C@@]56C(=O)Nc5ccccc56)ccc34)cn2)CC1 (relative stereo) [Example A157, (1R*,2S*)-2-(3-((E)-2-(6-(4-methylpiperazin-1-yl)pyridin-3-yl)vinyl)-1H-indazol-6-yl)spiro[cyclopropane-1,3′-indolin]-2′-one bis-2,2,2-trifluoroacetate] |  | 
< 100 | < 100 | > 50 | Cc1cc(/C=C/c2n[nH]c3cc([C@@H]4C[C@@]45C(=O)Nc4ccccc45)ccc23)ccn1 (relative stereo) [Example A161, (1R*,2S*)-2-(3-((E)-2-(2-methylpyridin-4-yl)vinyl)-1H-indazol-6-yl)spiro[cyclopropane-1,3′-indolin]-2′-one] |  | 
< 100 | < 100 | > 50 | CN(C)Cc1cccc(/C=C/c2n[nH]c3cc([C@@H]4C[C@@]45C(=O)N(CC(N)=O)c4ccccc45)ccc23)c1 (relative stereo) [Example A164, 2-((1R*,2S*)-(E)-2-(3-(3-((dimethylamino)methyl)styryl)-1H-indazol-6-yl)-2′-oxospiro[cyclopropane-1,3′-indoline]-1′-yl)acetamide 2,2,2-trifluoroacetate] |  | 
100 to 1000 |  |  | CN1CCN(c2ccc(-c3n[nH]c4cc([C@@H]5C[C@@]56C(=O)Nc5ccc(C(F)(F)F)cc56)ccc34)cc2)CC1 (relative stereo) [Example A170, (1R*,2S*)-2-(3-(4-(4-methylpiperazin-1-yl)phenyl)-1H-indazol-6-yl)-5′-(trifluoromethyl)spiro[cyclopropane-1,3′-indolin]-2′-one 2,2,2-trifluoroacetate] |  | 
 |  | > 50 | CCN(CC)Cc1c(F)cc(/C=C/c2n[nH]c3cc([C@@H]4C[C@@]45C(=O)Nc4ccccc45)ccc23)cc1F [Example A221, (1R,2S)-(E)-2-(3-(4-((diethylamino)methyl)-3,5-difluorostyryl)-1H-indazol-6-yl)spiro[cyclopropane-1,3′-indolin]-2′-one 2,2,2-trifluoroacetate] |  | 
